The results in this text go back to patent publication US6809111B2, “Prodrugs of COX-2 inhibitors” (Pharmacia Corporation, priority 2001, dated 2004).

The test system of data set [1] is carrageenan-induced inflammatory response in air pouch. The data set can be described thus: Air-pouch model of inflammation (carrageenan). The note with it: male Lewis rats. Type of data set: in vivo. The protocol: Male Lewis rats (175-200 g) were used. Air cavities were produced by subcutaneous injection of 20 mL of sterile air into the intrascapular area of the back. An additional 10 mL of air was injected into the cavity every 3 days to keep the space open. Seven days after the initial air injection, 2 mL of a 1% solution of carrageenan (Sigma) dissolved in saline was injected directly into the pouch to produce an inflammatory response. The volume of exudate was measured […]. The differential cell count was determined by Wright-Giemsa staining. PGE2 and 6-keto-PGF1α were determined in the pouch exudates by specific ELISAs (Cayman Chemicals, Ann Arbor, Mich.).

The compound `Cc1ccc(-c2cc(C(F)(F)F)nn2-c2ccc(S(=O)(=O)NCCO)cc2)cc1` [Example 3, N-(2-hydroxyethyl)-4-[5-(4-methylphenyl)-3-(trifluoromethyl)-1H1-pyrazol-1-yl]benzenesulfonamide] showed a melting point of 57.8 °C. For the same compound, the “AIR POUCH TEST % Inhibition @ 20 mg/kg body weight” value in data set [1] is 59%.
The compound `Cc1ccc(-c2cc(C(F)(F)F)nn2-c2ccc(S(=O)(=O)N(CCO)CCO)cc2)cc1` [Example 4, N,N-bis(2-hydroxyethyl)-4-[5-(4-methylphenyl)-3-(trifluoromethyl)-1H-pyrazol-1-yl]benzenesulfonamide] displayed a melting point of 79.1 °C. Besides, the “AIR POUCH TEST % Inhibition @ 20 mg/kg body weight” value in data set [1] came out at 10%.

For orientation: melting point means the temperature, or range, at which the solid turns liquid.
